Assay results: ChEMBL document CHEMBL1641539 (Bioorg Med Chem Lett, 2011)

Key:
[1] = target: T1, Serine/threonine-protein kinase 3 (Homo sapiens) (UniProt Q13188); assay: Inhibition of human MST2 at 10 uM after 60 mins by TR-FRET assay; conditions: values are per cent of control
T1 sequence (whole entry): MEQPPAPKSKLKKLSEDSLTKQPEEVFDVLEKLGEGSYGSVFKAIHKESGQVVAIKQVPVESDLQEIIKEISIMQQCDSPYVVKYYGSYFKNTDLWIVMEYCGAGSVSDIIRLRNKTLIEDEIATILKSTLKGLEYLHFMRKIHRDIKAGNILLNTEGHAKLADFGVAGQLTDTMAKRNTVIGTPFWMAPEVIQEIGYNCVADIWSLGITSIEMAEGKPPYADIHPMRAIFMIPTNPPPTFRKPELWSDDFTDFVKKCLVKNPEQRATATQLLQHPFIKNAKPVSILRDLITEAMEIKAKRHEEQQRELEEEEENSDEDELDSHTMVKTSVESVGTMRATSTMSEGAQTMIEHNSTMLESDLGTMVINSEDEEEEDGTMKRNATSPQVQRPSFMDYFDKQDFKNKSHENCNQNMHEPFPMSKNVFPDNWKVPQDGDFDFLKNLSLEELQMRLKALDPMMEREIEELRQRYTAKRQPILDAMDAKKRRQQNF

[2] = target: Mitogen-activated protein kinase kinase kinase 5 (Homo sapiens) (UniProt Q99683); assay: Inhibition of human ASK1 at 10 uM after 60 mins by TR-FRET assay; values are per cent of control
[3] = target: Mitogen-activated protein kinase 10 (Homo sapiens, UniProt P53779); assay: Inhibition of human JNK3 at 10 uM after 60 mins by TR-FRET assay; values are per cent of control
[4] = target: Mitogen-activated protein kinase 11 (Homo sapiens) (UniProt Q15759); assay: Inhibition of human SAPK2b at 10 uM after 60 mins by TR-FRET assay; conditions: values are per cent of control
[5] = target: Epidermal growth factor receptor (Homo sapiens) (UniProt P00533); assay: Inhibition of human EGFR at 10 uM after 60 mins by TR-FRET assay; conditions: values are per cent of control
[6] = target: Misshapen-like kinase 1 (Homo sapiens) (UniProt Q8N4C8); assay: Inhibition of human MINK at 10 uM after 60 mins by TR-FRET assay; values are per cent of control
Rattus norvegicus = species: Rattus norvegicus; assay: Inhibition of rat AMPK at 10 uM after 60 mins by TR-FRET assay; values are per cent of control
[7] = target: Serine/threonine-protein kinase ULK3 (Homo sapiens) (UniProt Q6PHR2); assay: Inhibition of human ULK3 at 10 uM after 60 mins by TR-FRET assay; conditions: values are per cent of control
[8] = tested on: Mast/stem cell growth factor receptor Kit (Homo sapiens), P10721 [V654A]; assay: Inhibition of human c-Kit V654A mutant at 10 uM after 60 mins by TR-FRET assay; values are per cent of control
[9] = target: Serine/threonine-protein kinase 17A (Homo sapiens) (UniProt Q9UEE5); assay: Inhibition of human DRAK1 at 10 uM after 60 mins by TR-FRET assay; values are per cent of control
[10] = target: Serine/threonine-protein kinase Sgk3 (Homo sapiens) (UniProt Q96BR1); assay: Inhibition of human SGK3 at 10 uM after 60 mins by TR-FRET assay; values are per cent of control
[11] = target: Death-associated protein kinase 1 (Homo sapiens) (UniProt P53355); assay: Inhibition of human DAPK1 at 10 uM after 60 mins by TR-FRET assay; values are per cent of control
[12] = target: Receptor-interacting serine/threonine-protein kinase 2 (Homo sapiens) (UniProt O43353); assay: Inhibition of human RIPK2 at 10 uM after 60 mins by TR-FRET assay; values are per cent of control
[13] = target: Tyrosine-protein kinase HCK (Homo sapiens) (UniProt P08631); assay: Inhibition of human Hck at 10 uM after 60 mins by TR-FRET assay; values are per cent of control
[14] = target: Tyrosine-protein kinase SYK (Homo sapiens) (UniProt P43405); assay: Inhibition of human Syk at 10 uM after 60 mins by TR-FRET assay; conditions: values are per cent of control
[15] = target: Fibroblast growth factor receptor 4 (Homo sapiens) (UniProt P22455); assay: Inhibition of human FGFR4 at 10 uM after 60 mins by TR-FRET assay; values are per cent of control
[16] = target: SRSF protein kinase 3 (Homo sapiens) (UniProt Q9UPE1); assay: Inhibition of human MSSK1 at 10 uM after 60 mins by TR-FRET assay; values are per cent of control
[17] = target: Serine/threonine-protein kinase TAO3 (Homo sapiens) (UniProt Q9H2K8); assay: Inhibition of human TAO3 at 10 uM after 60 mins by TR-FRET assay; values are per cent of control
[18] = target: Serine/threonine-protein kinase 10 (Homo sapiens) (UniProt O94804); assay: Inhibition of human LOK at 10 uM after 60 mins by TR-FRET assay; conditions: values are per cent of control
[19] = target: Ephrin type-A receptor 3 (Homo sapiens) (UniProt P29320); assay: Inhibition of human EphA3 at 10 uM after 60 mins by TR-FRET assay; values are per cent of control
[20] = target: cGMP-dependent protein kinase 1 (Homo sapiens) (UniProt Q13976); assay: Inhibition of human PKG1alpha at 10 uM after 60 mins by TR-FRET assay; values are per cent of control
[21] = target: Serine/threonine-protein kinase haspin (Homo sapiens) (UniProt Q8TF76); assay: Inhibition of human Haspin at 10 uM after 60 mins by TR-FRET assay; values are per cent of control
[22] = target: Serine/threonine-protein kinase 24 (Homo sapiens) (UniProt Q9Y6E0); assay: Inhibition of human MST3 at 10 uM after 60 mins by TR-FRET assay; conditions: values are per cent of control
[23] = tested on: Platelet-derived growth factor receptor alpha (Homo sapiens), P16234 [D842V]; assay: Inhibition of human PDGFRalpha D842V mutant at 10 uM after 60 mins by TR-FRET assay; values are per cent of control
[24] = target: Ribosomal protein S6 kinase alpha-2 (Homo sapiens) (UniProt Q15349); assay: Inhibition of human Rsk3 at 10 uM after 60 mins by TR-FRET assay; conditions: values are per cent of control

Chain of Serine/threonine-protein kinase haspin (Homo sapiens) (Q8TF76 whole entry): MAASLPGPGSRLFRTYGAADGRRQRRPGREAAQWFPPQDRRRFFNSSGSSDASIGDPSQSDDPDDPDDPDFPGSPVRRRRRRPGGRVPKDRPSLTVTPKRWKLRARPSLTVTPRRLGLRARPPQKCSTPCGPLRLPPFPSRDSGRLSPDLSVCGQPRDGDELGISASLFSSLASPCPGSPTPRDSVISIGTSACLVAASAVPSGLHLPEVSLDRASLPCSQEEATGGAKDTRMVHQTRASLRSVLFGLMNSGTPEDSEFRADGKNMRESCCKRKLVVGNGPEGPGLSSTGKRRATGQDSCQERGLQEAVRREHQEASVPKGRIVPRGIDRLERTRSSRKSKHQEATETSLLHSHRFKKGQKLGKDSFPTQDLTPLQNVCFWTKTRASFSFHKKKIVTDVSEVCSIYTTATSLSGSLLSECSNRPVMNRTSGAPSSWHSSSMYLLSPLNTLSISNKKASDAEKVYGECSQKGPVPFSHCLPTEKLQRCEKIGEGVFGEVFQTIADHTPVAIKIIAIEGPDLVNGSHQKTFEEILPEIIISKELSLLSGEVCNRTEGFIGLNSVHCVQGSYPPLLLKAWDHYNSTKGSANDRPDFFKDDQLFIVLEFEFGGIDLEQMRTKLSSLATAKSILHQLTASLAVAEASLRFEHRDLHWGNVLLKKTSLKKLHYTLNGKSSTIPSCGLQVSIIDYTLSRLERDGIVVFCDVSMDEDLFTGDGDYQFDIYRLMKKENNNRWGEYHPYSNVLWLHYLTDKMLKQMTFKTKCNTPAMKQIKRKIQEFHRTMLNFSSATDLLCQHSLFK
Chain of Serine/threonine-protein kinase 10 (Homo sapiens) (O94804 whole entry, looked up): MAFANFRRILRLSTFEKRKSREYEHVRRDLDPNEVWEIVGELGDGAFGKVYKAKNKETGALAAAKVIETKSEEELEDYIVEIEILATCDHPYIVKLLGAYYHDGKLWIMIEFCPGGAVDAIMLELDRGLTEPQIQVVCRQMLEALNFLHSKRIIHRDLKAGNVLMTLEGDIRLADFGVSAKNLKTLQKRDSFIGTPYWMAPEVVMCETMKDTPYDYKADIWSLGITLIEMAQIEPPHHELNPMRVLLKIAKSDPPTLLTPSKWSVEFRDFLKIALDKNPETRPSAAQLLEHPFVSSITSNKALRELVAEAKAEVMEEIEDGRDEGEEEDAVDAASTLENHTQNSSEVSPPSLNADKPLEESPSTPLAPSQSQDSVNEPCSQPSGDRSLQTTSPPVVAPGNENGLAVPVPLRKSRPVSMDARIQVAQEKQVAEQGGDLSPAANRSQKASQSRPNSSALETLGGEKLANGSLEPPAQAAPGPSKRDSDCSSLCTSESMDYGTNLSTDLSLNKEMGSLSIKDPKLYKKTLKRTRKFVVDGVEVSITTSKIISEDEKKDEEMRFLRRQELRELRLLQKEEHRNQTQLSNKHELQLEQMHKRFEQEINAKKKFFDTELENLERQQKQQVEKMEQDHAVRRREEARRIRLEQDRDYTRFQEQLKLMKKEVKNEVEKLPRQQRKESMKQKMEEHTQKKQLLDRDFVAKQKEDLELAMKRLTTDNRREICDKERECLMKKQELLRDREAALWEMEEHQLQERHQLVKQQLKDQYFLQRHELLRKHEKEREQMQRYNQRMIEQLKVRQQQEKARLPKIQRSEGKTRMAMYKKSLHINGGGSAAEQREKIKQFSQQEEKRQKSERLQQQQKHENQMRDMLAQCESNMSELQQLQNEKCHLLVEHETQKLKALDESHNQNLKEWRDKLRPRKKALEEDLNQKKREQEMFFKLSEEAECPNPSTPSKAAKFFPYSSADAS
Chain of Receptor-interacting serine/threonine-protein kinase 2 (Homo sapiens) (O43353 whole entry): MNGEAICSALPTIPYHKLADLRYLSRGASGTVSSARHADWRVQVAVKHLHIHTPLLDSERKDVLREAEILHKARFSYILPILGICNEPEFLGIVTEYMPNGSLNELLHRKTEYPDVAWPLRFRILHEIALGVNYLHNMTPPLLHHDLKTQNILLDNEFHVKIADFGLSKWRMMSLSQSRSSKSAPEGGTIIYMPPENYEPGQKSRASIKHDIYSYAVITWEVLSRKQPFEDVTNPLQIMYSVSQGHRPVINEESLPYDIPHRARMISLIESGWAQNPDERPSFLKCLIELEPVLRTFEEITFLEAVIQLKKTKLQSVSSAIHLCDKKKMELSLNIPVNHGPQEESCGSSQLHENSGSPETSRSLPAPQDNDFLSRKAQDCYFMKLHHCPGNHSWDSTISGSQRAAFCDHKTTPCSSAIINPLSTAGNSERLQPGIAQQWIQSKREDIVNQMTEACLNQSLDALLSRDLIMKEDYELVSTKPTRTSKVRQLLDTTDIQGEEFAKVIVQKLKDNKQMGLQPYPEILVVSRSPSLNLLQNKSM
Chain of Mast/stem cell growth factor receptor Kit (Homo sapiens), P10721 [V654A] (P10721 whole entry V654A): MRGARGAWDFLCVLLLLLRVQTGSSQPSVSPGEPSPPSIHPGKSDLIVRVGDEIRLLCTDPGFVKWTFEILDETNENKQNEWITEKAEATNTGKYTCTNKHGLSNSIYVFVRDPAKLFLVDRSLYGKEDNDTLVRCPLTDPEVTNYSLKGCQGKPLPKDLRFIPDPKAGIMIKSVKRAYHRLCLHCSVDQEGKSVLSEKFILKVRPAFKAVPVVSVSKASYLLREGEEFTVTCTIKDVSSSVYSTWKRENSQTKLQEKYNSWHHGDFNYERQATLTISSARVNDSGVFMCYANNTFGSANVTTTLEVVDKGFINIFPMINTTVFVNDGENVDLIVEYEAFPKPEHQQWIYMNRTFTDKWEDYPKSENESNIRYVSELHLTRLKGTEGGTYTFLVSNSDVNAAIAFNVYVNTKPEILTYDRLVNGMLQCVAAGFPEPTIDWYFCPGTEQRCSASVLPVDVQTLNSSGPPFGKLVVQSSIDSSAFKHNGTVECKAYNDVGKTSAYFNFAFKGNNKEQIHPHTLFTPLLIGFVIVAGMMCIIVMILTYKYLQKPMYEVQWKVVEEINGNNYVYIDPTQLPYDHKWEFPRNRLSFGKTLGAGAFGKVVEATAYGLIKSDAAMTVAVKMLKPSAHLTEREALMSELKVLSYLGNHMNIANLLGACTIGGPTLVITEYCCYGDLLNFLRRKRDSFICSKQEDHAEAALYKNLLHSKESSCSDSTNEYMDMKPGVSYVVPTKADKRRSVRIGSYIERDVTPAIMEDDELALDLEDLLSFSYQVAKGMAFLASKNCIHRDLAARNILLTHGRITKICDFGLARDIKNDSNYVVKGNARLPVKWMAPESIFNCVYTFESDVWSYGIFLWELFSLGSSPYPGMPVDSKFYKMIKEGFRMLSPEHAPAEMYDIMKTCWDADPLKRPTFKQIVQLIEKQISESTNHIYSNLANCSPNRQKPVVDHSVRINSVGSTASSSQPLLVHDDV
Chain of cGMP-dependent protein kinase 1 (Homo sapiens) (Q13976 whole entry): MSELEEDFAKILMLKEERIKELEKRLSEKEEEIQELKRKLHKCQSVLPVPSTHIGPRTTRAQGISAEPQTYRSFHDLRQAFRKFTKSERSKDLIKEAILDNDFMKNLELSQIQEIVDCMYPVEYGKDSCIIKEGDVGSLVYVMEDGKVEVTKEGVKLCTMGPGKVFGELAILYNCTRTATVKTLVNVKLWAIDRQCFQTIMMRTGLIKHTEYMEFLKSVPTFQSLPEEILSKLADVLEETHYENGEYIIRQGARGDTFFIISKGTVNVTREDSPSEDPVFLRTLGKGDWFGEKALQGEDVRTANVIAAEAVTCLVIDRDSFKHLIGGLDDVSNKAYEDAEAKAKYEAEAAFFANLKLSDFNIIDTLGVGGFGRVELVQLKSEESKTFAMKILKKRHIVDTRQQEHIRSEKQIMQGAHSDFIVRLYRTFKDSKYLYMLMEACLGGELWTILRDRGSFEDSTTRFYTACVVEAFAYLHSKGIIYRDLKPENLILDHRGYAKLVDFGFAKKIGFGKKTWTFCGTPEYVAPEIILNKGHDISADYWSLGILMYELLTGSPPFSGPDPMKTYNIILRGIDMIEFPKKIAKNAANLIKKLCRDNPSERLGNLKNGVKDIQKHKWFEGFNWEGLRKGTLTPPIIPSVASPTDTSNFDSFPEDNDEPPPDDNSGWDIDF
Chain of Serine/threonine-protein kinase ULK3 (Homo sapiens) (Q6PHR2 whole entry): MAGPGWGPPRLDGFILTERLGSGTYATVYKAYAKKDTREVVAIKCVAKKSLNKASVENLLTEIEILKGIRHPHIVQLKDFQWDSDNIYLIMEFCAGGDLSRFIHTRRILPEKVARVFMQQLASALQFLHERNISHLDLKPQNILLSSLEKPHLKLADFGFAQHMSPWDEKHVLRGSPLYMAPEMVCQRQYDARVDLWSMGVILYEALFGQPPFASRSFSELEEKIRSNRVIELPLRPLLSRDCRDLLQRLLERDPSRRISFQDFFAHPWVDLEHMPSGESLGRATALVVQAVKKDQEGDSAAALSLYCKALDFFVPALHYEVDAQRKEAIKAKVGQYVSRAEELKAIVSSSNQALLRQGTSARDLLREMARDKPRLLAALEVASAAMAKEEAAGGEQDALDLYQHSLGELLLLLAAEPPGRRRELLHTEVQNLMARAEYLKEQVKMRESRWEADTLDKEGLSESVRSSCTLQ
Chain of SRSF protein kinase 3 (Homo sapiens) (Q9UPE1 whole entry): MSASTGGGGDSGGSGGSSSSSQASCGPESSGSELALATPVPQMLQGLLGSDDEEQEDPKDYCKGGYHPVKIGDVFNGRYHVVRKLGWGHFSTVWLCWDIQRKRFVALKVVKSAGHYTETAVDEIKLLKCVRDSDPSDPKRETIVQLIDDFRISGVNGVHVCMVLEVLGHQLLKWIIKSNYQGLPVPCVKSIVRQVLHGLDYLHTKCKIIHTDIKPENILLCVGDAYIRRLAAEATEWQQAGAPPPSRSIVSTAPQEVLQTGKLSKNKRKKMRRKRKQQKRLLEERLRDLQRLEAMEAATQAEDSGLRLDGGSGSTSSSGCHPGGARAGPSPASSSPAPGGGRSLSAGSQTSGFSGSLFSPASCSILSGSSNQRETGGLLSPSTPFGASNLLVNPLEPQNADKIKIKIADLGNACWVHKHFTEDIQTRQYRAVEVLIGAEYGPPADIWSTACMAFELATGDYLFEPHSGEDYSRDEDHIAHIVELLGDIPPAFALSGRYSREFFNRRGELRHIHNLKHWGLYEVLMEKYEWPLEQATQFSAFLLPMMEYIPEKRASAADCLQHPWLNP

`S=c1[nH]nc(-c2ccncc2)n1-c1ccc2ccccc2c1` was tested. Which residual activity [1] did it give?
Its residual activity is 103%.

What about the residual activity [2] of the same molecule?
The residual activity was 102%.

And the residual activity [3]?
Its residual activity is 4%.

And the residual activity [4]?
The residual activity was 90%.

What about the residual activity [5] of the same molecule?
Its residual activity is 90%.

What about the residual activity [6] of the same molecule?
The residual activity was 80%.

And the residual activity (Rattus norvegicus)?
The residual activity was 108%.

What about the residual activity [7] of the same molecule?
Its residual activity is 107%.

What about the residual activity [8] of the same molecule?
The residual activity was 112%.

And the residual activity [9]?
The residual activity was 96%.

And the residual activity [10]?
The residual activity was 102%.

And the residual activity [11]?
Its residual activity is 108%.

And the residual activity [12]?
The residual activity was 111%.

What about the residual activity [13] of the same molecule?
Its residual activity is 112%.

And the residual activity [14]?
The residual activity was 116%.

What about the residual activity [15] of the same molecule?
The residual activity was 95%.

What about the residual activity [16] of the same molecule?
Its residual activity is 121%.

And the residual activity [17]?
The residual activity was 91%.

What about the residual activity [18] of the same molecule?
The residual activity was 89%.

And the residual activity [19]?
Its residual activity is 90%.

And the residual activity [20]?
The residual activity was 108%.

And the residual activity [21]?
Its residual activity is 102%.

And the residual activity [22]?
Its residual activity is 111%.

What about the residual activity [23] of the same molecule?
Its residual activity is 122%.

What about the residual activity [24] of the same molecule?
Its residual activity is 90%.
